Earlier results on two molecules are cited in EP4101443A1, “HOT-MELT COATED PARTICLES WITH PH-DEPENDENT RELEASE” (HERMES PHARMA GmbH, priority 2021, dated 2022).

≈ marks a conversion by molar mass, not a printed value.

For the molecule `CC(=O)N[C@@H](CS)C(=O)O` [NAC, N-acetylcysteine], the solubility (as a rule, the dissolved amount per volume that the medium holds) was 200 g/L (≈ 1230 mM).
`CC(=O)Oc1ccccc1C(=O)O` [ASA, acetylsalicylic acid]: the solubility was 2.24 g/L (≈ 12.4 mM).
